These results are taken from ChEMBL document CHEMBL5579899, “Discovery and In Vivo Exploration of 1,3,4-Oxadiazole and α-Fluoroacrylate Containing IL-17 Inhibitors” (J Med Chem, 2024).

What is called solubility is how much of the substance goes into solution per volume. The AUC is the area under the concentration-time curve, a measure of exposure. As usually defined, the Papp A→B is the apparent permeability from the apical to the basolateral side of a cell layer. The term IC50 denotes the concentration that gives 50% inhibition. In general, logD refers to lipophilicity at a set pH, counting ionised and neutral species. The clearance is the volume of plasma or blood freed of the substance per unit of time.

The nature of series [1]: Metabolic stability in rat liver microsomes assessed as intrinsic clearance. In kind it is ADME, Microsome. The following applies: read-out: CLH. (In general: Liver microsomes are a subcellular fraction often used to study metabolism.)
Series [2] in a line: Oral bioavailability in Sprague-Dawley rat at 3 mg/kg measured upto 24 hrs by LC-MS/MS analysis. The format is ADME, organism-based. Conditions: in vivo; for F: po, 3 mg/kg, 24 h; for bioavailability: Sprague-Dawley.
A short description of series [3]: Equilibrium solubility of compound […] at pH 6.8 by high-throughput analysis. In kind it is physicochemical.
Series [4] can be described thus: Metabolic stability in human liver microsomes assessed as intrinsic clearance. The format is ADME, Microsome. Conditions: read-out: CLH.
Series [5] can be described thus: AUC in Sprague-Dawley rat at 3 mg/kg,po measured upto 24 hrs by LC-MS/MS analysis. Conditions: in vivo; for AUC: po, 3 mg/kg, 24 h; for AUC at 24 h: Sprague-Dawley. In kind it is ADME, organism-based.
The nature of series [6]: Apparent permeability coefficient of the compound across apical to basolateral side in dog MDCK cells by high-throughput analysis. In kind it is ADME, cell-based, Canis lupus familiaris.
Series [7] can be described thus: Inhibition of IL-6 production in IL-17/TNF-alpha stimulated human NHDF cells incubated for 24 hrs by ELISA. The following applies: 24 h. In kind it is functional, cell-based.
Series [8] can be described thus: Inhibition of biotinylated human IL-17A/AF647-labeled human IL-17RA protein-protein interaction preincubated for 30 mins with compound followed by addition of AF647-labeled human IL-17RA incubated for 90 min by TR-FRET assay. A general note: TR-FRET usually uses a lanthanide donor and a delayed reading to cut background.
The nature of series [9]: Lipophilicity, logD of compound at pH 7.4. The format is physicochemical. Conditions: buffer.
Series [10] can be described thus: Plasma clearance in Sprague-Dawley rat at 1 mg/kg,iv measured upto 24 hrs by LC-MS/MS analysis. The format is ADME, organism-based.
A short description of series [11]: Hepatotoxicity in dog assessed as increase in serum liver enzyme at 50 mg/kg administration measured after 3 days. The format is toxicity, organism-based, Canis lupus familiaris. Conditions: in vivo, 72 h, time 3 day.
For a further series, the system named is Rattus norvegicus. The experiment in a line: Antiarthritic activity in antigen-induced arthritis Lewis rat model assessed as reduction in knee swelling at 10 mg/kg,po bid administrated for 4 days. In kind it is functional. Details: scale not given: the % may be the effect or the level left. The following applies: time 4 day.

Converted amounts (≈) assume the structure as drawn.

For the compound `C/C=C(/F)C(=O)N[C@H](c1cn2ncc([C@@H](COC)N3C[C@@H](C(F)(F)F)NC3=O)cc2n1)C1CCC(F)(F)CC1`, the microsomal CLint in series [1] turned out to be 240 µL/min/mg; in [4] it was 159 µL/min/mg. Further, the F in series [2] is 55%. In addition, in series [3], the solubility was found to be 600 µM (≈ 338 µg/mL). This compound also showed an exposure (AUC) in series [5] of 0.053 µM·h. For the same compound, in series [6], the Papp A→B is 17 ×10⁻⁶ cm/s. Besides, the IC50 was found to be 4 nM in series [7] and 11 nM in series [8]. The logD in [9] is 3.

With `COC[C@H](c1cnn2cc([C@@H](Nc3nnc(C4CC4)o3)C3CCC(F)(F)CC3)nc2c1)N1C[C@@H](C(F)(F)F)NC1=O`, the microsomal CLint in [1] was 17 µL/min/mg; in series [4], under 25 µL/min/mg. Also, in [10], the clearance was 86 mL/min/kg. Besides, the bioavailability in [2] was 2.5%. In [3], this compound displayed a solubility of over 750 µM. Further, in [5], the AUC at 24 h was determined as 0.026 µM·h. In addition, the Papp A→B in series [6] was 1.7 ×10⁻⁶ cm/s. For the same compound, the results for the IC50 in [7] and in [8] were 15 nM and 53 nM, respectively. Besides, the logD in [9] came to 2.7.

With `CC(F)(F)c1nnc(N[C@H](c2cn3ncc([C@@H](C4CC4)N4C[C@@H](C(F)(F)F)NC4=O)cc3n2)C2CCC(F)(F)CC2)o1`, the microsomal CLint turned out to be 37 µL/min/mg in series [1] and 66 µL/min/mg in series [4]. In series [10], the clearance was 56 mL/min/kg. The bioavailability in series [2] is 41%. This compound returned a solubility in [3] of 45 µM (≈ 27.2 µg/mL). The figures for the Activity entry (in [11]; in the series on Rattus norvegicus) were “Toxic” and 68%, respectively. The same compound returned an AUC at 24 h in [5] of 0.569 µM·h. The Papp A→B in series [6] came out at 10 ×10⁻⁶ cm/s. Moreover, the IC50 in series [7] was found to be 6 nM; in series [8], 21 nM. Also, the logD in series [9] worked out at 3.9.

For `COC[C@H](c1cnn2cc([C@@H](NC(=O)/C(F)=C3\CCOC3)C3CCC(F)(F)CC3)nc2c1)N1C[C@@H](C(F)(F)F)NC1=O`, the microsomal CLint was determined as 321 µL/min/mg in [1] and 50 µL/min/mg in series [4]. This compound gave a clearance in series [10] of 42 mL/min/kg. Besides, the bioavailability in series [2] came to 4%. In [3], this compound showed a solubility of over 750 µM. This compound displayed an AUC at 24 h in series [5] of 0.08 µM·h. Moreover, the Papp A→B in series [6] was determined as 7.4 ×10⁻⁶ cm/s. The IC50 in [7] came to 34 nM; in [8], 102 nM. Moreover, in series [9], the logD was 2.6.

Take `C=C(F)C(=O)N[C@H](c1cn2ncc([C@@H](COC)N3C[C@@H](C(F)(F)F)NC3=O)cc2n1)C1CCC(F)(F)CC1`: the microsomal CLint in [1] was found to be 33 µL/min/mg; in series [4], 11 µL/min/mg. Moreover, the F in [2] turned out to be 113%. The solubility in [3] was over 750 µM. In series [5], this compound had an AUC of 0.025 µM·h. The Papp A→B in series [6] was found to be 6.5 ×10⁻⁶ cm/s. Further, the IC50 is 27 nM in series [7] and 31 nM in [8]. In series [9], this compound gave a logD of 2.5.

For `COC[C@H](c1cnn2cc([C@@H](NC(=O)/C(F)=C\C3(F)CC3)C3CCC(F)(F)CC3)nc2c1)N1C[C@@H](C(F)(F)F)NC1=O`, the values for the microsomal CLint in series [1] and in series [4] were 64 µL/min/mg and 164 µL/min/mg, respectively. The compound further gave a F in series [2] of 23%. In series [3], this compound displayed a solubility of 560 µM (≈ 340 µg/mL). The AUC in series [5] was determined as 0.013 µM·h. In addition, in series [6], the Papp A→B worked out at 12 ×10⁻⁶ cm/s. In addition, the IC50 is 4 nM in series [7] and 16 nM in series [8]. In series [9], this compound gave a logD of 2.8.

Take `COC[C@H](c1cnn2cc([C@@H](NC(=O)C(F)=C(C)C)C3CCC(F)(F)CC3)nc2c1)N1C[C@@H](C(F)(F)F)NC1=O`: the microsomal CLint is over 1000 µL/min/mg in series [1] and 161 µL/min/mg in [4]. The compound further showed a solubility in series [3] of 340 µM (≈ 196 µg/mL). The Papp A→B in series [6] is 25 ×10⁻⁶ cm/s. For the same compound, the figures for the IC50 in series [7] and in series [8] were 8 nM and 19 nM, respectively. In addition, the logD in [9] was 3.2.

Consider `COC[C@H](c1cnn2cc([C@@H](NC(=O)C(C)(F)F)C3CCC(F)(F)CC3)nc2c1)N1C[C@@H](C(F)(F)F)NC1=O`, for which the microsomal CLint in [1] amounted to 26 µL/min/mg; in series [4], 15 µL/min/mg. In [3], this compound gave a solubility of over 750 µM. The Papp A→B in [6] amounted to 5.5 ×10⁻⁶ cm/s. The IC50 came to 74 nM in [7] and 85 nM in [8]. The compound further displayed a log distribution coefficient (logD) in [9] of 2.5.

In the case of `COC[C@H](c1cnn2cc([C@@H](Nc3nnc(C(C)(F)F)o3)C3CCC(F)(F)CC3)nc2c1)N1C[C@@H](C(F)(F)F)NC1=O`, the values for the microsomal CLint in series [1] and in series [4] were 18 µL/min/mg and 37 µL/min/mg, respectively. This compound also gave a F in series [2] of 41%. In [3], this compound yielded a solubility of 400 µM (≈ 243 µg/mL). In addition, the Activity in the series on Rattus norvegicus stood at 64%. The compound also registered an AUC in series [5] of 0.946 µM·h. The Papp A→B in series [6] came out at 3.6 ×10⁻⁶ cm/s. For the same compound, the IC50 in [7] was determined as 8 nM; in series [8], 38 nM. The same compound registered a logD in series [9] of 3.

Regarding `COC[C@H](c1cnn2cc([C@@H](NC(=O)c3nonc3C)C3CCC(F)(F)CC3)nc2c1)N1C[C@@H](C(F)(F)F)NC1=O` [LY-3509754], the values for the microsomal CLint in series [1] and in [4] were 20 µL/min/mg and 32 µL/min/mg, respectively. In [10], the clearance turned out to be 24 mL/min/kg. Besides, the bioavailability in series [2] came out at 119%. Besides, in series [3], the solubility amounted to 380 µM (≈ 223 µg/mL). The AUC at 24 h in [5] stood at 5.43 µM·h. Also, the Papp A→B in series [6] stood at 11 ×10⁻⁶ cm/s. Further, the IC50 was 4 nM in series [7] and 10 nM in [8]. Moreover, the logD in series [9] came to 3.1.
